This note sets out measurements from patent publication US8362031B2, “Lonidamine analogues and treatment of polycystic kidney disease” (University of Kansas, priority 2004, dated 2013).

Data set [1] concerns Salmonella Typhimurium TA 100. Description: Ames test for mutagenicity (plate assay, colony count). Conditions: 48 hours at 37° C.; for Ames test (+)S9 0.1 mg/pl. / Ames test (+)S9 1 mg/pl. / Ames test (+)S9 10 mg/pl.: (+)S9 mix; for Ames test (−)S9 0.1 mg/pl. / Ames test (−)S9 1 mg/pl. / Ames test (−)S9 10 mg/pl.: (−)S9 mix. (The Ames test detects mutagens through reverse mutation in bacteria.)

Data set [2] concerns M-1 Clone 20; human primary cyst epithelial cells (ADPKD cells). Description: MTT cell proliferation assay with cAMP (FIGS. 9A-9B). The following applies: 48 hours. Type of data set: cell-based. As for the experimental part: Various compounds were tested for their effects on cell proliferation. In the study, the cell types were M-1 Clone 20, which is an immortalized cell line that mimics PKD, and human primary cyst epithelial cells, or ADPKD cells. The compounds were tested at 1 μM to 100 μM concentrations.
M-1 clone 20 (“M1 Clone 20”) cells are a model of PKD-like cells, which were created by stably transfecting parental “normal” M-1 immortalized renal cortical collecting duct cells with the C-terminal cytosolic domain (or C-tail) of mouse polycystin-1 (the protein product of the Pkd1 gene. The overexpressed C-tail acts in a dominant-negative fashion, conferring the PKD phenotype to these cells. Their characterization is described in: Sutters, M., Yamaguchi, T., Maser, R. L., Magenheimer, B. S., St. John, P. L., Abrahamson, D. R., Grantham, J. J. and Calvet, J. P. (2001) Polycystin-1 transforms the cAMP growth-responsive phenotype of M-1 cells. Kidney Int. 60, 484-494.
FIGS. 9A-9B include graphs that show cells grown in the vehicle (i.e. DMSO at two different volumes of 1 uL and 5 uL respectively), cAMP only, and then under the treatment drugs, all of which also had cAMP in them. The comparison drug used was 10 uM of gamendazole. […] Absorbance is a measure of cell number.
The comparison drug used was 10 uM Gamendazole. The MTT cell proliferation assay was carried out to assess cell number—cell proliferation is essentially cell number. […] Thus, absorbance is a measure of cell number, or cell proliferation. The reference bar is the third bar from the left (cAMP)—the degree of inhibition should be compared to that bar.
On the technique in general: Tetrazolium dyes change colour on reduction, which living cells bring about.

A further data set has as its system S. typhimurium TA100. Description: Colormetric Ames Test Procedure. The class given is cell-based. The following applies: at the concentration given per compound (1.39-360.1 μM), 5 days at 37° C. As for the experimental part:
The following procedures were performed aseptically. First, the day before the assay, as late as possible in the day, the vial labeled “G” Nutrient Broth was dispensed into the vial labeled S. typhimurium TA100 (lyophilized). The mixture was incubated over night at 37° C. for about 16-18 hours.
In appropriate vial, about 50 mg of the test compound was weighed out. About 1 mL of DMSO was added, and the mixture was filter sterilized with 25 mm syringe filter into a sterile tube. The concentration of DMSO was noted.
In a sterile 50 mL tube, about 15 mL of sterile Davis Mingioli Salt (see Davis & Mingioli, Aromatic biosynthesis, VII. Accumulation of two derivatives of shikimic acid by bacterial mutants, J. Bacteriol. 1953. August; 66(2): 129-36) was pipetted. This salt solution (Muta Component “A”) was comprised of (1) Milli-Q, 600 mL; (2) dipotassium phosphate, anhyd., 38.5 g; (3) monopotassium phosphate, anhyd. 11.0 g; (4) ammonium sulfate, 5.5 g; (5) trisodium citrate, 1.375 g; and (6) magnesium sulfate, 0.55 g. Appropriate volume of Milli-Q water was added to bring total volume to 1 L. Each component was dissolved one at a time in the above order. The solution was filtered through a 0.22 μm filter to remove sediment at a pH of about 7.3.
To the salt solution, small amounts of DMSO diluted compound was added, not to exceed 500 μl of DMSO. For example, about 100 μl aliquots of the DMSO diluted compound was added until the highest concentration is reached with compound still in solution. […] When the highest concentration of compound was determined, an appropriate volume of sterile Davis Mingioli salts was added to bring the total volume of solution to 17.5 mL. The concentration of compound and DMSO in the test solution was then noted.
The components were then mixed in a 50 mL sterile tube labeled Reaction Mixture as follows: 21.62 mL of A+4.75 ml of B (D-glucose, 40% w/v)+2.38 mL of C (bromocresol purple, 5 mg/ml)+1.19 ml of D (D-biotin, 0.1 mg/ml)+0.060 ml (60 μl) of E (L-histidine, 0.1 mg/ml). The vial was vortexed and then set aside.
The S9 Mixture was prepared by reconstituting the S9 enzymes with 2.1 mL of sterile water. This was labeled “S9F.” In a 50 mL tube labeled S9 Mixture, the following were mixed together (all available from EBIP): 0.4 mL of S9A (MgCl2, 0.4 M and KCl, 1.65 M)+0.09 mL of S9B (glucose-6-phosphate, 1.0 M)+0.81 mL of S9C (nicotine amide di-nucleotide phosphate, 0.1 M)+9.98 mL of S9D (phosphate buffer, pH 7.4)+6.72 mL of S9E (sterile distilled water)+2 mL of S9F (Rate liver extract). The vial was vortexed and then set aside.
Sterile tubes were labeled as follows: Blank, Background I, Background II, Standard Mutagen, Compound 1 (−), Compound 1 (S9+), Compound 2 (−), Compound 2 (S9+), Compound 3 (−), Compound 3 (S9+). Next, about 2.5 mL of the reaction mix was added to each tube. Then, about 2 mL of the S9 mix was added to the Background II and the S9+ compounds. Next, to each of the compound vials, about 8 mL of the prepared compounds was added. The concentration of the compound in the final solution was noted. Then, about 100 μl of the standard mutagen was added to the Standard mutagen vial. (NaN3 for non S9 activation and 2-aminoanthracene with S9 activation). The appropriate volume of sterile water was next added for a final volume of 17.5 mL. Then, about 5 μl of bacteria was added to each tube except the Blank. Each vial was vortexed and poured into a sterile multi-channel pipette boat, and pipette 200 μl per well into the 96 well plate with a multi channel pipetter. The plates were labeled, covered, placed in zip lock bag, and then incubated for 5 days at 37° C.
On day five of the incubation, the plates were removed from the incubator and placed in a laminar flow hood. The Blank was analyzed first. If there were any wells that were yellow, the test was considered contaminated and the results invalid. […]

For another data set, the system named is Male Long Evans rats. Description: In vivo antispermatogenic testing in Long Evans rats.

The structures appear in SMILES notation.

For the compound `NNC(=O)c1nn(Cc2ccc(F)cc2F)c2cc(Cl)ccc12` [JWS-1-282, 1-(2,4-difluorobenzyl)-6-chloro-1H-indazole-3-carboxylic acid hydrazide], in data set [1], the “Ames test (+)S9 0.1 mg/pl.” value is listed as “Pass”, the “Ames test (+)S9 1 mg/pl.” value was “Pass”, the “Ames test (+)S9 10 mg/pl.” value is “Fail” and the “Ames test (−)S9 0.1 mg/pl.” value is “Pass”. In data set [1], the “Ames test (−)S9 1 mg/pl.” value is “Pass” and the “Ames test (−)S9 10 mg/pl.” value is listed as “Pass”. Besides, the “Inhibition of cell proliferation (MTT absorbance)” value (from here on “Inhibition of cell proliferation”) in data set [2] (25 uM) was “quite effective in inhibiting cell proliferation”.
For `COc1ccc2c(C(=O)O)nn(Cc3ccc(Cl)cc3Cl)c2c1` [JWS-2-122, 1-(2,4-dichlorobenzyl)-6-methoxy-1H-indazole-3-carboxylic acid], in the data set on S. typhimurium TA100, the “Colormetric Ames test, with S9” value was “Pass*” and the “Colormetric Ames test, without S9” value is listed as “Pass*”.
Turning to `O=C(O)c1nn(Cc2ccc(Cl)cc2Cl)c2cc(OC(F)(F)F)ccc12` [JWS-2-102, 1-(2,4-dichlorobenzyl)-6-trifluoromethoxy-1H-indazole-3-carboxylic acid], in the data set with S. typhimurium TA100, the “Colormetric Ames test, with S9” value was “Pass*” and the “Colormetric Ames test, without S9” value was “Pass*”.
For the compound `Cc1ccc2c(C(=O)NN)nn(Cc3ccc(Cl)cc3Cl)c2c1` [TH-2-179, 1-(2,4-dichlorobenzyl)-6-methyl-1H-indazole-3-carboxylic acid hydrazide], the “Mortality (25 mg/kg)” value in the data set on Male Long Evans rats (25 mg/kg single i.p. injection, […]) is listed as 0/5. The “Response 25 mg/kg” value in the data set with Male Long Evans rats (25 mg/kg single i.p. injection, animals responding out of animals surviving, five days following injection) is on record as 2/5. Also, the “Mortality (200 mg/kg)” value in the data set with Male Long Evans rats (200 mg/kg single i.p. injection, […]) is given as 0/5. The “Response 200 mg/kg” value with Male Long Evans rats (200 mg/kg single i.p. injection, animals responding out of animals surviving, five days following injection) was 5/5. Also, in data set [1], the “Ames test (+)S9 0.1 mg/pl.” value is listed as “Pass”, the “Ames test (+)S9 1 mg/pl.” value was “Pass”, the “Ames test (+)S9 10 mg/pl.” value is listed as “Pass” and the “Ames test (−)S9 0.1 mg/pl.” value is “Pass”. For the same compound, in data set [1], the “Ames test (−)S9 1 mg/pl.” value is “Pass” and the “Ames test (−)S9 10 mg/pl.” value is given as “Pass”. Also, the “Inhibition of cell proliferation” value in data set [2] (10 uM) is “more effective at 10 uM”. Also, the “Inhibition of cell proliferation” value in data set [2] (25 uM) is “more effective in inhibition of cell proliferation at 25 uM compared to 10 uM”.
With `O=C(O)/C=C/c1nn(Cc2ccc(Cl)cc2Cl)c2cc(OC(F)(F)F)ccc12` [JWS-2-112, 3-[1-(2,4-dichlorobenzyl)-6-trifluoromethoxy-1H-indazol-3-yl]acrylic acid], in the data set with S. typhimurium TA100, the “Colormetric Ames test, with S9” value is recorded as “Pass*” and the “Colormetric Ames test, without S9” value is on record as “Pass*”.
For the compound `COC(=O)c1nn(Cc2ccc(Cl)cc2Cl)c2cc(OC)ccc12` [JWS-2-120, 1-(2,4-dichlorobenzyl)-6-methoxy-1H-indazole-3-carboxylic acid methyl ester], in the data set on S. typhimurium TA100, the “Colormetric Ames test, with S9” value is “Pass*” and the “Colormetric Ames test, without S9” value is recorded as “Pass*”.
Consider `NNC(=O)c1nn(Cc2ccc(Cl)cc2Cl)c2cc(OC(F)(F)F)ccc12` [JWS-2-104, 1-(2,4-dichlorobenzyl)-6-trifluoromethoxy-1H-indazole-3-carboxylic acid hydrazide], for which, in the data set on S. typhimurium TA100, the “Colormetric Ames test, with S9” value is reported as “Pass*” and the “Colormetric Ames test, without S9” value is “Pass*”.
Take `COC(=O)/C=C/c1nn(Cc2ccc(Cl)cc2Cl)c2cc(OC(F)(F)F)ccc12` [JWS-2-110, 3-[1-(2,4-dichlorobenzyl)-6-trifluoromethoxy-1H-indazol-3-yl]acrylic acid methyl ester]: in the data set on S. typhimurium TA100, the “Colormetric Ames test, with S9” value is “Pass*” and the “Colormetric Ames test, without S9” value is recorded as “Pass*”.
Regarding `COc1ccc2c(/C=C/C(=O)O)nn(Cc3ccc(Cl)cc3Cl)c2c1` [JWS-2-132, 3-[1-(2,4-dichlorobenzyl)-6-methoxy-1H-indazol-3-yl]acrylic acid], in the data set on S. typhimurium TA100, the “Colormetric Ames test, with S9” value is listed as “Pass*” and the “Colormetric Ames test, without S9” value is listed as “Pass*”.
With `COC(=O)c1nn(Cc2ccc(Cl)cc2Cl)c2cc(OC(F)(F)F)ccc12` [JWS-2-100, 1-(2,4-dichlorobenzyl)-6-trifluoromethoxy-1H-indazole-3-carboxylic acid methyl ester], in the data set on S. typhimurium TA100, the “Colormetric Ames test, with S9” value is “Pass*” and the “Colormetric Ames test, without S9” value is recorded as “Pass*”.
For the compound `NNC(=O)c1nn(Cc2ccc(F)cc2Cl)c2cc(Cl)ccc12` [JWS-2-22, 1-(2-chloro, 4-fluorobenzyl)-6-chloro-1H-indazole-3-carboxylic acid hydrazide], in data set [1], the “Ames test (+)S9 0.1 mg/pl.” value is “Pass”, the “Ames test (+)S9 1 mg/pl.” value is given as “Pass”, the “Ames test (+)S9 10 mg/pl.” value was “Pass” and the “Ames test (−)S9 0.1 mg/pl.” value is “Pass”. In data set [1], the “Ames test (−)S9 1 mg/pl.” value is “Pass” and the “Ames test (−)S9 10 mg/pl.” value is reported as “Pass”. In addition, the “Inhibition of cell proliferation” value in data set [2] (25 uM) is recorded as “quite effective in inhibiting cell proliferation”.
With `COC(=O)c1nn(Cc2ccc(Cl)cc2Cl)c2cccc(C)c12` [JWS-2-92, 1-(2,4-dichlorobenzyl)-4-methyl-1H-indazole-3-carboxylic acid methyl ester], in the data set with S. typhimurium TA100, the “Colormetric Ames test, with S9” value is “Pass*” and the “Colormetric Ames test, without S9” value is recorded as “Pass*”.
